The results in this text go back to PubChem BioAssay (NCI).

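96-well plates; 48 h exposure; 5 concentrations. Endpoints by linear interpolation between flanking doses. Not reached: highest tested concentration assigned. Definition used: TGI = concentration required for complete inhibition of growth.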

One test deals with NCI-H23 lung. Kind of test: NCI anticancer screen, dose series, 48 h.
As to `C=CCONC(=O)c1ccc(Cl)cc1`, the TGI was above 100 µM.
The molecule `O=C(CC1Sc2ccccc2NC1=O)Nc1cc(Cl)ccc1Cl` (stereo unspecified) registered a TGI above 100 µM.
Turning to `O=C(CCn1[nH]c(=O)c(Cl)c(Cl)c1=O)NOCCCc1ccccc1`, the TGI is above 100 µM.
The same measure, in the same setting: next, `C/C(=N\N)C(CN(C)C)C(c1ccccc1)c1c(O)c2ccccc2oc1=O` (stereo unspecified): above 100 µM.
On the same count and under the same terms, under `c1ccc(Nc2nnc(CSc3nc(-c4ccccc4)c(-c4ccccc4)[nH]3)s2)cc1` stands 45.1 µM.

The next test has as its system OVCAR-4 ovarian. Kind of test: NCI anticancer screen, dose series, 48 h.
The molecule `O=C1C/C(=C/c2ccc(/C=C3/CC(=O)N(c4cccc(Br)c4)C3=O)cc2)C(=O)N1c1cccc(Br)c1` showed a TGI above 100 µM.
On the same count and under the same terms, under `CCCCCCn1c(SCC)c2ccccc2c1-c1nc(F)nc(F)n1` stands above 100 µM.
With `CN(C(=O)C12C3C4C1C1C2C3C41I)C(C)(C)C` (stereo unspecified), the TGI is above 100 µM.
The molecule `CC(=O)/C(=C\c1ccco1)C(=O)Nc1ccccc1` gave a TGI above 100 µM.
Same read-out and setting: under `NCC1(N2CCOCC2)C2CCCC21CO` (stereo unspecified) stands above 100 µM; under `CC#COP(=O)(OCC)OCC`, above 100 µM; under `COc1ccc(/C=C(\Cl)c2ccc(OC)c(OC)c2)cc1OC`, above 100 µM.
Still for that read-out and setting: next, `Cc1c2ccncc2cc2c1sc1ccncc12`: 25.2 µM; `C=CCONC(=O)c1ccc(Cl)cc1`: above 100 µM.
With `O=C(CC1Sc2ccccc2NC1=O)Nc1cc(Cl)ccc1Cl` (stereo unspecified), the TGI was above 100 µM.
Turning to `O=C(CCn1[nH]c(=O)c(Cl)c(Cl)c1=O)NOCCCc1ccccc1`, the TGI is above 100 µM.
As to `CC(C)=CCCC1(C)C=Cc2c(c(C)cc3c2[nH]c2cc(O)ccc23)O1` (stereo unspecified), the TGI is above 25 µM.
Still for that read-out and setting: next, `C/C(=N\N)C(CN(C)C)C(c1ccccc1)c1c(O)c2ccccc2oc1=O` (stereo unspecified): above 100 µM; `c1ccc(Nc2nnc(CSc3nc(-c4ccccc4)c(-c4ccccc4)[nH]3)s2)cc1`: 87.7 µM.

In a further test the test system is HCT-116 colon. Kind of test: NCI anticancer screen, dose series, 48 h.
In turn, `O=C1C/C(=C/c2ccc(/C=C3/CC(=O)N(c4cccc(Br)c4)C3=O)cc2)C(=O)N1c1cccc(Br)c1` had a TGI above 100 µM.
Same read-out and setting: under `CCCCCCn1c(SCC)c2ccccc2c1-c1nc(F)nc(F)n1` stands above 100 µM; under `CN(C(=O)C12C3C4C1C1C2C3C41I)C(C)(C)C` (stereo unspecified), above 100 µM.
Same read-out and setting: next, `CC(=O)/C(=C\c1ccco1)C(=O)Nc1ccccc1`: above 100 µM; `NCC1(N2CCOCC2)C2CCCC21CO` (stereo unspecified): above 100 µM.
`CC#COP(=O)(OCC)OCC`: the TGI was above 100 µM.
For `COc1ccc(/C=C(\Cl)c2ccc(OC)c(OC)c2)cc1OC`, the TGI was above 100 µM.
On to `Cc1c2ccncc2cc2c1sc1ccncc12`, for which the TGI was 13.1 µM.
Same read-out and setting: under `C=CCONC(=O)c1ccc(Cl)cc1` stands above 100 µM; under `O=C(CC1Sc2ccccc2NC1=O)Nc1cc(Cl)ccc1Cl` (stereo unspecified), above 100 µM.
The same measure, in the same setting: next, `O=C(CCn1[nH]c(=O)c(Cl)c(Cl)c1=O)NOCCCc1ccccc1`: above 100 µM; `CC(C)=CCCC1(C)C=Cc2c(c(C)cc3c2[nH]c2cc(O)ccc23)O1` (stereo unspecified): above 25 µM.
Take `C/C(=N\N)C(CN(C)C)C(c1ccccc1)c1c(O)c2ccccc2oc1=O` (stereo unspecified): the TGI is above 100 µM.
Molecule `c1ccc(Nc2nnc(CSc3nc(-c4ccccc4)c(-c4ccccc4)[nH]3)s2)cc1` displayed a TGI of 35.7 µM.

The subject of the next test is 786-0 renal. Kind of test: NCI anticancer screen, dose series, 48 h.
`O=C1C/C(=C/c2ccc(/C=C3/CC(=O)N(c4cccc(Br)c4)C3=O)cc2)C(=O)N1c1cccc(Br)c1` yielded a TGI above 100 µM.
On the same count and under the same terms, next, `CCCCCCn1c(SCC)c2ccccc2c1-c1nc(F)nc(F)n1`: above 100 µM; `CN(C(=O)C12C3C4C1C1C2C3C41I)C(C)(C)C` (stereo unspecified): above 100 µM.
On the same count and under the same terms, under `CC(=O)/C(=C\c1ccco1)C(=O)Nc1ccccc1` stands above 100 µM; under `NCC1(N2CCOCC2)C2CCCC21CO` (stereo unspecified), above 100 µM; under `CC#COP(=O)(OCC)OCC`, above 100 µM.
On to `COc1ccc(/C=C(\Cl)c2ccc(OC)c(OC)c2)cc1OC`, for which the TGI is above 100 µM.
`Cc1c2ccncc2cc2c1sc1ccncc12` came in with a TGI of 18 µM.
The same measure, in the same setting: next, `C=CCONC(=O)c1ccc(Cl)cc1`: above 100 µM; `O=C(CC1Sc2ccccc2NC1=O)Nc1cc(Cl)ccc1Cl` (stereo unspecified): above 100 µM; `O=C(CCn1[nH]c(=O)c(Cl)c(Cl)c1=O)NOCCCc1ccccc1`: above 100 µM.
Still for that read-out and setting: under `CC(C)=CCCC1(C)C=Cc2c(c(C)cc3c2[nH]c2cc(O)ccc23)O1` (stereo unspecified) stands above 25 µM; under `C/C(=N\N)C(CN(C)C)C(c1ccccc1)c1c(O)c2ccccc2oc1=O` (stereo unspecified), above 100 µM.
Still for that read-out and setting: under `c1ccc(Nc2nnc(CSc3nc(-c4ccccc4)c(-c4ccccc4)[nH]3)s2)cc1` stands 39.3 µM.

Another test deals with SR leukemia. Kind of test: NCI anticancer screen, dose series, 48 h.
`O=C1C/C(=C/c2ccc(/C=C3/CC(=O)N(c4cccc(Br)c4)C3=O)cc2)C(=O)N1c1cccc(Br)c1` displayed a TGI above 100 µM.
As to `CCCCCCn1c(SCC)c2ccccc2c1-c1nc(F)nc(F)n1`, the TGI is above 100 µM.
`CN(C(=O)C12C3C4C1C1C2C3C41I)C(C)(C)C` (stereo unspecified) had a TGI above 31.6 µM.
The same measure, in the same setting: under `CC(=O)/C(=C\c1ccco1)C(=O)Nc1ccccc1` stands above 100 µM; under `NCC1(N2CCOCC2)C2CCCC21CO` (stereo unspecified), above 100 µM.
For the molecule `CC#COP(=O)(OCC)OCC`, the TGI is above 100 µM.
Same read-out and setting: next, `COc1ccc(/C=C(\Cl)c2ccc(OC)c(OC)c2)cc1OC`: above 100 µM; `Cc1c2ccncc2cc2c1sc1ccncc12`: 1.67 µM.
Molecule `C=CCONC(=O)c1ccc(Cl)cc1` gave a TGI above 100 µM.
Still for that read-out and setting: under `O=C(CC1Sc2ccccc2NC1=O)Nc1cc(Cl)ccc1Cl` (stereo unspecified) stands 82.1 µM; under `O=C(CCn1[nH]c(=O)c(Cl)c(Cl)c1=O)NOCCCc1ccccc1`, above 100 µM.
As to `CC(C)=CCCC1(C)C=Cc2c(c(C)cc3c2[nH]c2cc(O)ccc23)O1` (stereo unspecified), the TGI is above 25 µM.
With `C/C(=N\N)C(CN(C)C)C(c1ccccc1)c1c(O)c2ccccc2oc1=O` (stereo unspecified), the TGI is above 100 µM.
On the same count and under the same terms, next, `c1ccc(Nc2nnc(CSc3nc(-c4ccccc4)c(-c4ccccc4)[nH]3)s2)cc1`: 51.1 µM.
